Test results as given in US9828375B2, “4-position substituted pyrazolopyrimidine derivative, and use thereof in drug preparation” (Guangxi Wuzhou Pharmaceuticals (Group) Co., Ltd., priority 2012, dated 2017).
Like-named read-outs stand apart in the source and are kept apart here.

Assays:
[1] = system: human malignant melanoma cell line WM2664
Procedure: The purpose of the experiment was to test the in vivo anti-tumor effect of the compound of the invention. […] The cell line used was human malignant melanoma cell line WM2664. The drug (sorafenib) undergoing anti-melanoma clinical trial was used as the positive control.
BALB/C nude mice at age of 6 to 8 weeks were used, and WM2664 cells were inoculated at the subcutaneous posterior ribs of the mice at a concentration of 5×106/0.1 mL/mouse; after the tumors grew to 200-300 mm^3 (for about 15 days), mice (n=6) were grouped and subject to oral intragastric administration.
(§2) Observation targets: Mouse weight and long and short diameters of tumor were measured every 3 days, and tumor volume (length×width^2×0.52) was calculated to observe for diarrhea, convulsion, rash, significant weight loss and other reactions.

[2] = system: human leukemia cell line MV4-11; settings: for in vivo tumor growth inhibition effect: oral intragastric q.d., MV4-11 tumors 400-500 mm^3 at start; for inhibition effect compared with positive control sorafenib: sorafenib 3 mg/kg q.d., MV4-11 model
Procedure: The cell line used was human leukemia cell line MV4-11. The drug (Sorafenib) undergoing anti-leukemia clinical trial was used as the positive control.
NOD-SCID mice at age of 6 to 8 weeks were used, and MV4-11 cells were inoculated at the subcutaneous posterior ribs of the mice at a concentration of 1×10^7/0.1 mL/mouse; after the tumors grew to 400-500 mm^3 (for about 20 days), mice (n=6) were grouped and subject to oral intragastric administration.
as §2

[3] = system: human colorectal carcinoma cell line HT29; assay: In vivo anti-tumor experiment, nude mouse-subcutaneous human colorectal carcinoma HT29 model; set-up: species or system BALB/C nude mice
Text: (§1) The cell lines used were human colorectal carcinoma cell line HT29 and human glioma cell line U251.

[4] = system: inter segmental blood vessels of transgenic zebrafish (FLK1-GFP); assay: Angiogenesis inhibition activity test in transgenic zebrafish (FLK1-GFP); type: in vivo; settings: concentration of 1 ug/mL, compared with the control group
Procedure: The new blood vessel inhibition activity of the test compounds was expressed by the inhibition degree of the test compounds for the inter segmental blood vessels of zebrafish at concentrations of 10 ug/mL, 3 ug/mL and 1 ug/mL.
Acquisition of zebrafish embryos: The zebrafish used by this laboratory was fluorescent transgenic zebrafish (FLK1: GFP). Refer to Westerfield method for breeding and cultivation of zebrafish. The day before spawns were obtained, male and female zebrafish were paired at the ratio of 1:1. On the second day, the male and female zebrafish naturally mated and spawned at a temperature of about 28° C. under sufficient illumination. Enough zebrafish embryos were collected, washed, placed into embryo culture media, and put into a 28° C. incubator for culture. The survival of embryos was identified by morphological and phylogenetic standards, and dead embryos were white and taken out timely to prevent deterioration of water quality. […]
Result observation: Thirty one hours after the zebrafish embryos were fertilized, spawns were taken out and hatched zebrafish was peeled off; and then the hatched zebrafish was put onto slide, 1‰ tricaine solution was added to narcotize the fish body, and 1.5% methylcellulose was used to fix the fish body; and the inter segmental vessels (ISV) were observed, counted and photographed under a fluorescence microscope. […]

[5] = system: human glioma cell line U251; assay: In vivo anti-tumor experiment, nude mouse-subcutaneous human glioma U251 model; set-up: species or system BALB/C nude mice
Text: as §1

[6] = daily dose of 30 mg/kg or above, oral
[7] = nude mice, 15-60 mg/kg q.d. oral

SMILES: O=C(Nc1ccc(Oc2ncnc3[nH]ncc23)cc1)Nc1ccc(Cl)c(C(F)(F)F)c1 [4a-2]
- effect compared with sorafenib ([1]; 4a-2 25 mg/kg/d vs sorafenib at daily dose of 50 mg/kg): more effective than sorafenib
- in vivo tumor growth inhibition effect ([1]; dose of 25 mg/kg/d, oral, WM2664 (BRAF V600D) model): obviously inhibit tumor growth
- in vivo tumor growth inhibition effect ([2]; daily dose of 3 mg/kg or above): obviously inhibit tumor growth or extinct tumor completely
- inhibition effect compared with positive control sorafenib [2]: superior to the positive control (sorafenib)

SMILES: O=C(Nc1ccc(Oc2ncnc3[nH]ncc23)cc1)Nc1cccc(C(F)(F)F)c1 [4a-6]
- in vivo tumor growth inhibition effect [3, 6]: obviously inhibit tumor growth
- weight loss, rash, diarrhea and other adverse reactions during administration [3, 7]: not found
- angiogenesis inhibition for FLK1 transgenic zebrafish [4]: inhibit angiogenesis of zebrafish very well
- in vivo tumor growth inhibition effect [5, 6]: obviously inhibit tumor growth
- weight loss, rash, diarrhea and other adverse reactions during administration [5, 7]: not found

SMILES: CC(C)(C)c1cc(NC(=O)Nc2ccc(Oc3ncnc4[nH]ncc34)c(F)c2)no1 [4a-31]
- angiogenesis inhibition for FLK1 transgenic zebrafish [4]: inhibit angiogenesis of zebrafish very well
- in vivo tumor growth inhibition effect ([2]; daily dose of 1 mg/kg): obviously inhibit tumor growth
- in vivo tumor growth inhibition effect ([2]; daily dose of 3 mg/kg or above): extinct tumor completely
- inhibition effect compared with positive control sorafenib [2]: superior to the positive control (sorafenib)
